Measurements reported in publication PMC10238102, “Anti-SARS-CoV-2 Activity of Adamantanes In Vitro and in Animal Models of Infection” (COVID, 2022).

Tests used:
[1] = test system: SARS-CoV-2 omicron variant B.1.1.529; test: microbe, parasite or virus in culture; format: cell-based; conditions: Severe acute respiratory syndrome coronavirus 2, Vero C1008, 48 h
[2] = mouse, in vivo

Structure (SMILES): NC12CC3CC(CC(C3)C1)C2 [amantadine]
- IC50 [1]: 106 µM
- weight loss at 3 DPI compared to water control [2]: significant amount of weight loss

Structure (SMILES): CCC(CC)COC(=O)[C@H](C)N[P@](=O)(OC[C@H]1O[C@@](C#N)(c2ccc3c(N)ncnn23)[C@H](O)[C@@H]1O)Oc1ccccc1 [remdesivir]
- IC50 [1]: 0.89 µM

Structure (SMILES): CC(N)C12CC3CC(CC(C3)C1)C2 (stereo not shown) [rimantadine]
- IC50 [1]: 17.8 µM
